According to patent publication US9802897B2, “Amidopyridinol derivative or pharmaceutically acceptable salt thereof and pharmaceutical composition comprising same as active component” (Research Cooperation Foundation of Yeungnam University, priority 2013, dated 2017):

What was measured:
HUVEC cells = assay: Scavenging of VEGF-induced ROS in HUVEC cells (DCF-DA fluorescence); type: cell-based; details: pre-treated 3 hours, induced by VEGF 15 minutes, vs VEGF-induced cells
Procedure: To measure scavenging effects of ROS in HUVEC cells that were induced by VEGF, 2′,7′-dichlorofluorescein diacetate (DCF-DA) was used. […] After […] at a concentration of 1×10^5, each of which well was coated with 0.2% gelatin, DCF-DA was cultured for 24 hours. Meanwhile, Compounds 8a and 8b were pre-treated for 3 hours, induced by VEGF for 15 minutes, and then, washed with PBS (pH 7.4) three times. Then, 10 μM of DCF-DA was placed in a EBM-2 medium to be treated for 30 minutes in a dark room. Then, DCF-DA was washed again with PBS three times, and then, subjected to measure intensity of fluorescence in the cells by using a fluorescence microscope.

HT-29 cells / U937 cells = assay: TNF-α-induced adhesion of HT-29 intestinal epithelial cells and U937 mononuclear cells; type: cell-based, human; details: Homo sapiens; 1 μM, pre-treated 1 hour; TNF-α 10 ng/ml; read-out: Inhibitory rates (%)
How it was run: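 HT-29 cells were pretreated with compound for 1 h in serum-free medium, then stimulated with TNF-α 10 ng/ml for 3 h at 37 °C. BCECF-AM-labelled U937 cells were co-incubated for 1 h at 37 °C. Non-adherent cells were washed off, and lysates in 0.1% Triton X-100/0.1 M Tris were read by fluorescence.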

cathepsin S = assay: RT-PCR of cathepsin S gene expression in MDA-MB-231 cells; type: cell-based; details: Homo sapiens, MDA-MB-231, 24 h, screening, 1 μM of each compound; MDA-MB-231, RT-PCR; read-out: Inhibition rate of expression of cathepsin S (%)
Procedure: Each compound of the present invention was treated with breast cancer cells (1×10^5 cell/cm^2), e.g., MDA-MB-231, and then, cultured at a temperature of 37° C. for 24 hours in a cell incubator. Afterwards, a trizole reagent was used to extract the entire mRNA therefrom. 24 hours later, the culture medium was removed therefrom, 1 mL of the triazole reagent was added to each well, and then, the cell elusion was transferred to a 1.5 mL tube. After 200 μl of chloroform was added to each sample, the samples were subjected to centrifugation at a temperature of 4° C., at 12,000 g, for 15 minutes. 500 μl of the supernatant obtained therefrom was transferred to a new tube. After 500 μl of isopropylalcohol was added to each sample, the samples were subjected to centrifugation at a temperature of 4° C., at 12,000 g, for 15 minutes. The supernatant obtained therefrom was removed from each sample, and then, the samples were washed with 75% ethanol to clean mRNA while the precipitants were dried. Then, mRNA extracted therefrom was dissolved in RNase-free water, followed by being heated at a temperature of 55° C. for 10 minutes.
After the RNA quantification, the GoScript™ reverse transcription system (Promega Corporation, Madison, Wis., USA) was used to synthesize cDNA. Here, PCR was performed by using TaKaRa Taq™ (Takara bio Inc., Shiga, Japan), wherein a primer set of cathepsin S consists of a forward primer having SEQ ID NO: 1 (forward sequence: 5′-GCAGTGGCACAGTTGCATAA-3′) and a reverse primer having SEQ ID NO: 2 (reverse sequence: 5′-AGCACCACAAGAACCCATGT-3′). After the PCR product was subjected to agarose gel electrophoresis, the PCR product was stained with ethidium bromide (0.5 μg/ml), thereby obtaining images thereof by using the gel imaging system (UVP, Cambridge, UK). Here, the PCR product was quantified based on glyceraldehyde 3-phosphate dehydrogenase (GAPDH). A GAPDH primer used herein consists of a forward primer having SEQ ID NO: 3 (forward sequence: 5′-GGTGAAGGTCGGAGTCAACG-3′) and a reverse primer having SEQ ID NO: 4 (reverse sequence: 5′-CAAAGTTGTCATGGATGACC-3′).
Furthermore, to screen other amidopyridinol derivatives that inhibit metastasis of breast cancer cells, inhibitory effects on expression of cathepsin S genes were reviewed by treating 1 μM of each compound, in the same manner as in Experimental Example 9.

SMILES | intensity of fluorescence in the cells (ROS) (HUVEC cells) | inhibition at 1 µM (HT-29 cells / U937 cells) [%] | inhibition at 1 µM (cathepsin S) [%]
CC(=O)Nc1nc(C)c(O)c(C)c1C [Compound 8a, N-(5-hydroxy-3,4,6-trimethylpyridine-2-yl)acetamide] | significant decrease in the intensity of fluorescence | 55.4 | ≥ 50
CCCCCCCCCCCC(=O)Nc1nc(C)c(O)c(C)c1C [Compound 8b, N-(5-hydroxy-3,4,6-trimethylpyridine-2-yl)dodecanamide] | significant decrease in the intensity of fluorescence | 55.8 | ≥ 50
